According to PMC6233306 (Bioorganic & medicinal chemistry letters, 2018):

System: FadD32 mutant strains of Mtb (E120 and F291)
Type: cell-based, Mycobacterium tuberculosis

| SMILES | activity versus the E120 and F291 mutants compared to wild-type | FadD32 mutant MIC90 [µM] |
| --- | --- | --- |
| Cc1cc2nccc(-c3ccccc3)c2c(C)c1-c1ccc(CN2CCOCC2)cc1 [Compound 8] | markedly less activity |  |
| Cc1cc2nccc(-c3ccnn3C)c2c(C)c1-c1ccc(CN2CCOCC2)cc1 [Compound 15m] | markedly less activity | 100 |
| Cc1cc2nccc(-c3cncnc3)c2c(C)c1-c1ccc(CN2CCOCC2)cc1 [Compound 15n] | markedly less activity | 100 |
| CNC(=O)c1cc(-c2ccccc2Cl)c2c(C)c(-c3ccncc3)c(C)cc2n1 [Compound 21b] | markedly less activity |  |
